Here are results for five molecules from PMC8011081, “Bio-guided isolation of anti-leishmanial natural products from Diospyros gracilescens L. (Ebenaceae)” (BMC Complementary Medicine and Therapies, 2021).

Data set [1] has as its system L. donovani promastigotes (MHOM/SD/62/1S). In words: Inhibitory assay against L. donovani promastigotes (resazurin colorimetric assay). In kind it is cell-based. To be noted: Leishmania donovani, mean ± SD, triplicate. Here is the method:
The cryopreserved promastigote form of L. donovani (1S (MHOM/SD/62/1S) was obtained from Bei Resources (https://www.beiresources.org/) and is routinely cultured at the Antimicrobial and Biocontrol Agents Unit, University of Yaoundé I, in Medium 199 (Sigma, Darmstadt, Germany) supplemented with 10% Heat-Inactivated fetal Bovine Serum (HIFBS) (Sigma, Darmstadt, Germany) and 100 IU/mL penicillin and 100 μg/mL streptomycin. The culture was maintained in 75 Cm^2 cell culture flask at 28 °C and checked for growth daily and sub-cultured everyday 72 h.
The stock solutions were prepared by dissolving each sample in 100% dimethyl sulfoxide (DMSO) and subsequently diluted serially in non-supplemented culture medium. […] The viability rate of promastigotes positively correlated with the amount of pink resorufin that was produced through the reduction of blue resazurin by the dehydrogenase enzymes in the inner mitochondrial membrane of the living parasites. Briefly, promastigotes from a logarithmic phase culture (4 × 10^5 cells/mL; 90 μL) were seeded in 96-well microtiter plates and were treated with 10 μl of inhibitors at different triplicate concentrations ranging 100 μg/mL-0.16 μg/mL for extracts and fractions and 50 μg/mL-0.08 μg/mL for compounds. The final concentration of DMSO in each well was not higher than 1%. Plates were incubated for 28 h at 28 °C, followed by the addition of 1 mg/mL resazurin (Sigma, Darmstadt, Germany). […] After an additional incubation for 44 h, plates were then read on a Magelan Infinite M200 fluorescence multi-well plate reader (Tecan, Männedorf, Switzerland) at an excitation and emission wave lengths of 530 and 590 nm respectively.

The subject of data set [2] is L. donovani amastigotes. The data set can be described thus: Inhibitory assay against intracellular L. donovani amastigotes in Raw 264.7 macrophages (resazurin). The class given is cell-based. To be noted: Leishmania donovani, RAW264.7, isolated compounds, mean ± SD. Here is the method:
The effect of plant isolates against the intracellular amastigote form of L. donovani was evaluated essentially as described by Jain et al. with some modifications. Briefly, macrophage Raw 264.7 cells ([…]) were seeded in 96 well plates and incubated for 6 h at 37 °C under 5% CO2 for adhesion of the cells. Afterwards, the non-adherent cells were washed-out with sterile PBS. The adherent Raw 264.7 cells were infected with metacyclic promastigotes (4 × 10^5 cells) at an infection ratio of 1:10 macrophage: parasites and incubated for 24 h at 37 °C under 5% CO2 in order to allow infection of macrophages by metacyclic promastigotes. Thereafter, the overlying medium was removed, and the monolayer cells with internalized amastigotes were carefully washed four times with PBS to remove free parasites. Freshly prepared M199 medium containing 10% FBS and the test extracts were added in triplicate to the infected cells at serially diluted concentrations and incubated for 48 h at 37 °C under 5% CO2. After incubation, 0.05% Sodium dodecyl sulfate (SDS) was added in each well for 30 s for controlled lysis followed by M199 with 10% FBS as macrophage lysis stopper. Resazurin reagent (250 μg/mL) was thereafter added in each well and the plates were incubated for 24 h followed by fluorescence recording at λexcitation = 530 nm and λemission = 590 nm using a Tecan Infinite M200 microplate reader (Tecan). Inhibition percentages were calculated using Microsoft Excel Software and median inhibitory concentration (IC50) obtained from dose-response curves using GraphPad Prism 5.0. Software.
(In general: The colour change of resazurin is a common sign of viable cells or microbes.)

The nature of data set [3]: in vitro. To be noted: mouse. The method, then: The cytotoxicity profile of extracts, fractions and compounds was assessed using the Alamar blue assay against Raw 264.7 cells duly cultivated in complete Dulbecco’s Modified Eagle’s Medium (DMEM) containing 13.5 g/L DMEM (Sigma Aldrich), 10% fetal Bovine Serum (Sigma Aldrich), 0.2% sodium bicarbonate (w/v) (Sigma, Darmstadt, Germany) and 50 μg/mL gentamycin (Sigma Aldrich). Globally, macrophages were seeded into 96-wells cell-culture flat-bottomed plates at a density of 10^4 cells in final volume of 100 μL of complete medium/well and incubated for 24 h at 37 °C, 5% CO2, 70% RH in a ICO 105 memmert incubator (memmert, Schwabach, Germany) to allow cell adhesion. Ten μL of each serially diluted test sample were added in triplicate wells and assay plates were then incubated for 48 h in the same experimental conditions. Growth control consisted of 0.1%DMSO (100% growth) and positive control of podophyllotoxin (Sigma, Darmstadt, Germany) at 20 μM. Cell proliferation was checked by adding 10 μL of a stock solution of resazurin (0.15 mg/mL in sterile PBS) to each well followed by plates incubation during 4 h. Fluorescence was then read on a Tecan Infinite M200 fluorescence multi-well plate reader at an excitation/emission of 530/590 nm. […] Selectivity indices (CC50/IC50, defining the balance between cytotoxicity and antileishmanial activity) were calculated for each test substance.

Data set [4] has as its system L. donovani promastigotes. In words: Concentration/time inhibition (kill) kinetics, trypan blue counting. The class given is cell-based, Leishmania donovani.
Procedure: The number of viable parasites was determined after every 24 h over 120 h by staining with trypan blue. Quantification of viable parasites was achieved by counting the parasites with clear cytoplasm (non-stained) using a Neubauer hemocytometer with cover slips. Three independent experiments were performed for each sample.
[5] abbreviates: isolated compounds, read-out: IC50 (Promastigotes).

Like-named read-outs stand apart in the source and are kept apart here.

Consider `CCC(CCC(C)C1CCC2C3CC=C4CC(OC5OC(CO)C(O)C(O)C5O)CCC4(C)C3CCC12C)C(C)C` [β-sitosterol glucoside (6), β-sitosterol 3-O-D-glucopyranoside], for which the values for the IC50 in data set [1] (setting [5]) and in data set [2] were 49.34 ± 0.12 µM and 32 ± 0.22 µM, respectively. The molecule also came in with a CC50 at 48 h in data set [3] of 28.6 ± 0.07 µM.

Turning to `OC1CC(O)C(O)C(O)C1O` (centres unmarked) [1-deoxyinositol (7), 1-deoxyinositol], the figures for the IC50 in data set [1] (setting [5]) and in data set [2] were 241.71 ± 0.16 µM and 120 ± 0.18 µM, respectively. This molecule had a CC50 in data set [3] above 1220 µM.

Turning to `C[C@@H]1[C@H](O)[C@@H](C)/C=C/C=C/C=C/C=C/C=C/C=C/C=C/[C@H](O[C@@H]2O[C@H](C)[C@@H](O)[C@H](N)[C@@H]2O)C[C@@H]2O[C@](O)(C[C@@H](O)C[C@@H](O)[C@H](O)CC[C@@H](O)C[C@@H](O)CC(=O)O[C@H]1C)C[C@H](O)[C@H]2C(=O)O` [Amphotericin B, reference compound], the IC50 in data set [1] (crude extracts, H20: EtOH, read-out: Promastigote of L. donovani (MHOM/SD/62/1S) IC50 ± SD) amounted to 0.34 ± 0.22 µg/mL; in data set [1] (setting [5]), 0.37 ± 0.22 µM; in data set [1] (trunk extract and fractions, read-out: IC50 (Promastigotes)), 0.34 ± 0.22 µg/mL. Further, the “Effect on promastigote replication / growth” value in data set [4] (0.5x IC50, IC50, 2x IC50, 4x IC50, viable parasites counted every 24 h) is “significant reduction in promastigote replication after 24 h”. In addition, the Cidal effect result in data set [4] (all tested concentrations, exposure up to 120 h) was “no evidence of cidal effect”.

For `C=C(C)[C@@H]1CC[C@]2(C(=O)O)CC[C@]3(C)[C@H](CC[C@@H]4[C@@]5(C)CC[C@H](O)C(C)(C)[C@@H]5CC[C@]43C)[C@@H]12` [Betulinic acid (3), Betulinic acid], the IC50 in data set [1] (setting [5]) was determined as 13.69 ± 0.07 µM; in data set [2] it was 18.46 ± 0.01 µM. This molecule also returned a CC50 in data set [3] of 82.39 ± 0.09 µM.

For `C=C(C)[C@@H]1CC[C@]2(C)CC[C@]3(C)[C@H](CC[C@@H]4[C@@]5(C)CC[C@H](O)C(C)(C)[C@@H]5CC[C@]43C)[C@@H]12` [Lupeol (1), Lupeol], the IC50 in data set [1] (setting [5]) is 23.22 ± 0.08 µM; in data set [2] it was 46.7 ± 0.65 µM. The same molecule gave a CC50 at 48 h in data set [3] (Raw 264.7 cells (macrophages)) of 19.3 ± 0.3 µM.
